From US12427161B2, “Methods for treating and pharmaceutical compositions” (Boehringer Ingelheim International GmbH, priority 2015, dated 2025)

Key:
[1] = system: Goto-Kakizaki diabetic rats (GK rats); assay: Erectile responses to electrical stimulation of the cavernous nerve (ES CN), intracavernous pressure in anesthetized rats; format: in vivo, rat
Method: Adult male Wistar (Charles River, France) and age-matched GK rats (Metabrain Research, Chilly-Mazarin, France) were housed at least 7 days prior to the beginning of the treatment with free access to control diet and water and maintained on an inversed 12 h dark/light cycle. At 15 weeks of age, treatments were started; n=12 Wistar (group I) rats and n=24 GK (group II) rats were fed with a control diet, while n=24 GK rats (group III) were fed for 28 days by a medicated diet i.e., control diet premixed with empagliflozin 300 ppm (parts per million corresponding to an average of 25.3 mg/kg body weight of empaglfilozin in that experiment).
On day 29th after starting treatment administration, and approximately 16 hours after the last treatment administration, fasted rats (19 weeks of age) underwent an in vivo evaluation of their erectile function after electrical stimulation of the cavernous nerve (ES CN), in comparison to acute dosing of sildenafil.
Erectile responses were elicited by electric stimulation (ES) of the cavernous nerve (CN) and measured by monitoring intracavernous pressure (ICP) in anesthetized rats according to an experimental procedure previously described and well-standardized. After an overnight fasting period, rats were anesthetized (urethane […]) and their temperature maintained at 37° C. using a homoeothermic blanket. A tracheotomy was performed to prevent aspiration of saliva and to perform, when required, artificial ventilation. The carotid artery was catheterized with polyethylene tubings filled with heparinized saline (25 UI/ml) to record blood pressure (BP) via a pressure transducer (Elcomatic 750, Glasgow, UK). Simultaneous computerized measure of BP and ICP was performed. CN was exposed at the lateral aspect of the prostate, with the aid of a dissecting microscope and mounted on a bipolar platinum electrode connected to an electrical stimulator (AMS 2100, Phymep, France). In some animals an acute dose of sildenafil (0.3 mg/kg) or vehicle was intravenously injected. […] The CN was stimulated at 6V, 1 ms for 45 s by different stimulation frequencies (0, 2.5, 5, 7.5, 10, 12.5 and 15 Hz) in a randomized manner in order to assess the erectile responses. These different electrical stimulations on the increase of ICP were repeated twice in view of establishing a frequency-response curve for each animal.
Mean arterial pressure (MAP) and the amplitude of the erectile responses elicited by each ES CN were quantified for each rat and averaged for each experimental group by calculating: • ICP (mmHg)/MAP (mmHg)×100 with AICP being the difference between ICP in the flaccid state, i.e. before stimulation and ICP during the plateau phase of the erectile response, and MAP, the mean arterial pressure during the plateau phase. • AUC45/MAP with AUC45, the area under the curve during the first 45 seconds after the beginning of the electrical stimulation of the cavernous nerve and determined using the ICP level in the flaccid state before the onset of the stimulation. • AUCtot/MAP with AUCtot, the area under the curve during the entire erectile response, measured from the beginning of the electrical stimulation until the end of the erectile response and determined using the ICP level in the flaccid state before the onset of the stimulation. • ICP increase and AUC were normalized with MAP to account for the close influence of the systemic blood pressure in the amplitude of ICP increase during the plateau phase of the erectile response.
For erectile function evaluation, comparisons of frequency-response curves were performed with a two-way ANOVA statistical analysis test followed by a Bonferroni's post-test. In case of significant interaction between the two factors (i.e. frequency of ES CN and experimental group), the difference between groups of rats was examined by the modified Student's t-test with the Bonferroni's adjustment for multiple comparisons.

[2] = system: corporal strips of diabetic GK rats; assay: EFS-induced relaxation of PHE-precontracted corpora cavernosa strips (ex vivo isometric tension); design: species or system rat
Method: In addition, to further evaluate erectile function, at the end of the in vivo evaluation of the ED, the penis of 24 GK rats (groups IIA & IIIA) and 12 wistar rats (group I) were immediately harvested and the corpora cavernosa (CC) dissected for ex vivo isometric tension studies. After extensive washings, corporal strips were incubated in the presence of guanethidine (5 μM) and atropine (1 μM) that were also added to the organ chambers for the remainder of the experiments. The corporal strips were placed between two parallel platinum electrodes in the organ baths. After equilibration (60 min), the electric field stimulation (EFS) experiments were started. Firstly, a priming period was observed where corporal strips from Wistar, GK (control) and GK_Chronic empa were exposed to phenylephrine (PHE) (10^−5 M) followed by an EFS-induced relaxation at 1 ms, 10 s, 300 mA and 20 Hz. Then, after washings, frequency-response curves (FRC) to EFS (1-2-4-8-16-32 Hz) was constructed on PHE-precontracted corporal strips (PHE 10^−5 M). Frequency response-curves (FRC) to EFS were performed by successive stimulation of the corporal strips at 1 ms, 10 s, 300 mA and increasing frequencies (1, 2, 4, 8, 16 and 32 Hz). […]
The results from duplicate determinations in one experiment with CC from one rat were averaged and the data expressed as mean±SEM for N experiments using CC from N different rats. […]

[3] = metformin on its own, in the diabetic; cited from earlier work
GK rats = details: acute single dose 0.3 mg/kg; cited from earlier work

## OC[C@H]1O[C@@H](c2ccc(Cl)c(Cc3ccc(O[C@H]4CCOC4)cc3)c2)[C@H](O)[C@@H](O)[C@@H]1O [empagliflozin, 1-chloro-4-(β-D-glucopyranos-1-yl)-2-[4-((S)-tetrahydrofuran-3-yloxy)-benzyl]-benzene]
[1]; chronic empagliflozin 25.3±0.9 mg/kg/day
  pro-erectile facilitator effect compared with acute IV dose of sildenafil at 0.3 mg/kg: slightly but significantly lower
[1]; empagliflozin in diet 25.3±0.9 mg/kg/day for 4 weeks, vs GK control diet, p=0.08, 2-way ANOVA, FIG. 1
  erectile responses to ES CN in terms of ΔICP/MAP: no difference could be statistically detected
[1]; empagliflozin premixed with diet 25.3±0.9 mg/kg/day for 4 weeks, vs GK control diet, p<0.05, FIG. 2a
  erectile responses to ES CN in terms of AUC45/MAP: improved
[1]; empagliflozin premixed with diet 25.3±0.9 mg/kg/day for 4 weeks, vs GK control diet, p<0.05, FIG. 2b
  erectile responses to ES CN in terms of AUCtot/MAP: improved
[2]; 4-week empagliflozin 25.3±0.9 mg/kg/d, mean±SEM, not significantly different from untreated
  maximal relaxation induced by EFS at 32 Hz (percentage of inhibition of the contractile response to PHE): −42.0±2.9%
[2]; 4-week treatment of empagliflozin at 25.3±0.9 mg/kg/d, vs untreated GK, p<0.05, 2-way ANOVA, FIG. 3
  relaxation induced by EFS on PHE precontracted cavernosal strips (frequency-response curve): slightly but significantly improved

## CN(C)C(=N)N=C(N)N [metformin]
[3]
  average improvement in the HbA1c value: 1.0-1.5%

## CCCc1nn(C)c2c(=O)[nH]c(-c3cc(S(=O)(=O)N4CCN(C)CC4)ccc3OCC)nc12 [sildenafil]
[1]; sildenafil 0.3 mg/kg acute i.v. 4 min before evaluation, vs GK control, p<0.0001, 2-way ANOVA, FIG. 1
  erectile response to ES CN in terms of ΔICP/MAP: significantly increased
[1]; sildenafil 0.3 mg/kg acute i.v., vs GK control, p<0.0001, 2-way ANOVA, FIG. 2a
  erectile response to ES CN in terms of AUC45/MAP: significantly increased
[1]; sildenafil 0.3 mg/kg acute i.v., vs GK control, p<0.0001, 2-way ANOVA, FIG. 2b
  erectile response to ES CN in terms of AUCtot/MAP: significantly increased
GK rats
  impaired erectile function in GK rats: partially improved
